# Test results taken from patent US9951021B2, “Compounds for inhibiting c-Myc/Max/DNA complex formation” (NATIONAL CANCER CENTER, priority 2016, dated 2018).
# Target: T1, recombinant c-Myc/Max (Homo sapiens, UniProt P01106+P61244)
# T1 construct: made in house
# Assay: Electrophoretic mobility shift assay (EMSA): inhibitory activity on DNA binding of recombinant c-Myc/Max
# Conditions: read-out: protein assay IC50
# Experimental: 1) Preparation of Recombinant c-Myc and Max Proteins
# Recombinant proteins were prepared as described in the following references: K. C. Jung et al., Fatty Acids, Inhibitors for the DNA Binding of c-Myc/Max Dimer, Suppress Proliferation and Induce Apoptosis of Differentiated HL-60 Human Leukemia Cell, Leukemia, 2006, 20(1), 122-7 or Kyung-Chae Jeong et al., Small-Molecule Inhibitors of c-Myc Transcriptional Factor Suppress Proliferation and Induce Apoptosis of Promyelocytic Leukemia Cell via Cell Cycle Arrest, Mol. BioSyst., 2010, 6, 1503-1509.
# 2) Electrophoretic Mobility Shift Assay (EMSA)
# The inhibitory activity of each candidate compound on DNA binding of recombinant c-Myc/Max was measured using an electrophoretic mobility shift assay (EMSA). The ratio of protein-DNA complexes in each sample was evaluated by measuring band intensity. The oligonucleotides (E-box) corresponding to the consensus binding site of Myc/Max were dimerized through an annealing process. The protein mixture was incubated at room temperature for 5 minutes, and a DMSO solution containing each candidate compound was added thereto. The mixture was further incubated for 5 minutes, and the biotinylated DNA was added. To achieve a state of equilibrium, the final mixture was incubated at room temperature for 10 minutes. The protein-DNA complexes were separated from unbound free DNA by pre-electrophoresis using 8% polyacrylamide gel and 1×TBE buffer. After pre-electrophoresis, electrophoresis was performed at 120 V for 1 hour in 1×TBE buffer. Each band was visualized using HRP-conjugated streptavidin and an ECL solution, and band intensity was measured using image analysis software.
# T1 sequence (P01106 whole entry): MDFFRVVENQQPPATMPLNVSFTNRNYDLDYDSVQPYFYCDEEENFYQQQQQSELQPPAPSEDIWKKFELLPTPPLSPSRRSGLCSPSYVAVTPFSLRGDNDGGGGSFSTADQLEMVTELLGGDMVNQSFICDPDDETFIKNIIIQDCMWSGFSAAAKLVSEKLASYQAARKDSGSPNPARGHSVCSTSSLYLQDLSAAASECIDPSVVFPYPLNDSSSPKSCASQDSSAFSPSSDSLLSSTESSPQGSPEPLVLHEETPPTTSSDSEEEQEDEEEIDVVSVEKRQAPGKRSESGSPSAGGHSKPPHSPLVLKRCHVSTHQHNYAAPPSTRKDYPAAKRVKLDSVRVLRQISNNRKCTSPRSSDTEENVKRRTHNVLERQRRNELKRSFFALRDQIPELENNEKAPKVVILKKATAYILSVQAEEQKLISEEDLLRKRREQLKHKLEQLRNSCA
# T1 sequence (P61244 whole entry): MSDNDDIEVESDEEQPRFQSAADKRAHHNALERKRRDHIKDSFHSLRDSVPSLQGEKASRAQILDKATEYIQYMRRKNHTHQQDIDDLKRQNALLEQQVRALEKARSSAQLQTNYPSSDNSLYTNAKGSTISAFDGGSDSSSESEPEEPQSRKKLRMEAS
compound,measurement,value
"COc1ccccc1[S+]([O-])c1[nH]c2c(Br)ccc(Cl)c2c(=O)c1C(C)=O (centres unmarked) [Compound 15, 3-acetyl-8-bromo-5-chloro-2-((2-methoxyphenyl)sulfinyl)quinolin-4(1H)-one]",IC50,< 1000 nM
"CC(=O)c1c([S+]([O-])Cc2ccc(C(F)(F)F)nc2C)[nH]c2c(Br)ccc(Cl)c2c1=O (centres unmarked) [Compound 102, 3-acetyl-8-bromo-5-chloro-2-(((2-methyl-6-(trifluoromethyl)pyridin-3-yl)methyl)sulfinyl)quinolin-4(1H)-one]",IC50,< 1000 nM
"CC(=O)c1c([S+]([O-])Cc2cccc(F)c2)[nH]c2c(Br)ccc(Cl)c2c1=O (centres unmarked) [Compound 50, 3-acetyl-8-bromo-5-chloro-2-((3-fluorobenzyl)sulfinyl)quinolin-4(1H)-one]",IC50,< 1000 nM
"Cc1cc(C[S+]([O-])c2[nH]c3c(Cl)ccc(Cl)c3c(=O)c2C(=O)c2ccccc2)no1 (centres unmarked) [Compound 88, 3-benzoyl-5,8-dichloro-2-(((5-methylisoxazol-3-yl)methyl)sulfinyl)quinolin-4(1H)-one]",IC50,< 1000 nM
"CC(=O)c1c([S+]([O-])Cc2cnc3[nH]ccc3c2)[nH]c2c(Br)ccc(Cl)c2c1=O (centres unmarked) [Compound 107, 2-(((1H-pyrrolo[2,3-b]pyridin-5-yl)methyl)sulfinyl)-3-acetyl-8-bromo-5-chloroquinolin-4(1H)-one]",IC50,< 1000 nM
"CC(=O)c1c([S+]([O-])Cc2ccc(F)c(Cl)c2)[nH]c2c(Br)ccc(Cl)c2c1=O (centres unmarked) [Compound 31, 3-acetyl-8-bromo-5-chloro-2-((3-chloro-4-fluorobenzyl)sulfinyl)quinolin-4(1H)-one]",IC50,< 1000 nM
"O=C(c1c([S+]([O-])Cc2ccc(SC(F)(F)F)cc2)[nH]c2c(Br)ccc(Cl)c2c1=O)C1CC1 (centres unmarked) [Compound 101, 8-bromo-5-chloro-3-(cyclopropanecarbonyl)-2-((4-((trifluoromethyl)thio)benzyl)sulfinyl)quinolin-4(1H)-one]",IC50,< 1000 nM
"Cc1cc(C[S+]([O-])c2[nH]c3c(Cl)ccc(Cl)c3c(=O)c2C(=O)C2CC2)no1 (centres unmarked) [Compound 97, 5,8-dichloro-3-(cyclopropanecarbonyl)-2-(((5-methylisoxazol-3-yl)methyl)sulfinyl)quinolin-4(1H)-one]",IC50,< 1000 nM
"CC(=O)c1c([S+]([O-])Cc2ccc(SC(F)(F)F)cc2)[nH]c2c(Br)ccc(Cl)c2c1=O (centres unmarked) [Compound 56, 3-acetyl-8-bromo-5-chloro-2-((4-((trifluoromethyl)thio)benzyl)sulfinyl)quinolin-4(1H)-one]",IC50,< 1000 nM
"CC(=O)c1c([S+]([O-])Cc2ccc(F)cc2F)[nH]c2c(Br)ccc(Cl)c2c1=O (centres unmarked) [Compound 29, 3-acetyl-8-bromo-5-chloro-2-((2,4-difluorobenzyl)sulfinyl)quinolin-4(1H)-one]",IC50,< 1000 nM
"CC(=O)c1c(SCC#N)[nH]c2c(Br)ccc(Cl)c2c1=O [Compound 66, 2-((3-acetyl-8-bromo-5-chloro-4-oxo-1,4-dihydroquinolin-2-yl)thio)acetonitrile]",IC50,< 1000 nM
"CSc1c(C(C)=O)c(=O)c2c(Cl)ccc(Br)c2n1S(=O)(=O)c1ccc([N+](=O)[O-])cc1 [Compound 38, 3-acetyl-8-bromo-5-chloro-2-(methylthio)-1-((4-nitrophenyl)sulfonyl)quinolin-4(1H)-one]",IC50,< 1000 nM
"CC(=O)c1c(S(=O)(=O)Cc2ccccc2)[nH]c2c(Br)ccc(Cl)c2c1=O [Compound 34, 3-acetyl-2-(benzylsulfonyl)-8-bromo-5-chloroquinolin-4(1H)-one]",IC50,< 1000 nM
"Cc1cc(C[S+]([O-])c2[nH]c3c(Br)ccc(Cl)c3c(=O)c2C(=O)C2CC2)no1 (centres unmarked) [Compound 96, 8-bromo-5-chloro-3-(cyclopropanecarbonyl)-2-(((5-methylisoxazol-3-yl)methyl)sulfinyl)quinolin-4(1H)-one]",IC50,< 1000 nM
"CC(=O)c1c(Sc2ccccc2)[nH]c2c(Br)ccc(Cl)c2c1=O [Compound 12, 3-acetyl-8-bromo-5-chloro-2-(phenylthio)quinolin-4(1H)-one]",IC50,< 1000 nM
"CC(=O)c1c([S+](C)[O-])n(S(=O)(=O)C(F)(F)F)c2c(Br)ccc(Cl)c2c1=O (centres unmarked) [Compound 36, 3-acetyl-8-bromo-5-chloro-2-(methylsulfinyl)-1-((trifluoromethyl)sulfonyl)quinolin-4(1H)-one]",IC50,< 1000 nM
"CC(=O)c1c([S+]([O-])Cc2ccc(Cl)cc2)[nH]c2c(Br)ccc(Cl)c2c1=O (centres unmarked) [Compound 11, 3-acetyl-8-bromo-5-chloro-2-((4-chlorobenzyl)sulfinyl)quinolin-4(1H)-one]",IC50,< 1000 nM
"CC(=O)c1c([S+]([O-])Cc2ccc(OC(F)(F)F)cc2)[nH]c2c(Br)ccc(Cl)c2c1=O (centres unmarked) [Compound 71, 3-acetyl-8-bromo-5-chloro-2-((4-(trifluoromethoxy)benzyl)sulfinyl)quinolin-4(1H)-one]",IC50,< 1000 nM
"COc1ccccc1Sc1[nH]c2c(Br)ccc(Cl)c2c(=O)c1C(C)=O [Compound 14, 3-acetyl-8-bromo-5-chloro-2-((2-methoxyphenyl)thio)quinolin-4(1H)-one]",IC50,< 1000 nM
"COCCNc1ccc(C[S+]([O-])c2[nH]c3c(Br)ccc(Cl)c3c(=O)c2C(C)=O)cn1 (centres unmarked) [Compound 105, 3-acetyl-8-bromo-5-chloro-2-(((6-((2-methoxyethyl)amino)pyridin-3-yl)methyl)sulfinyl)quinolin-4(1H)-one]",IC50,< 1000 nM
"CC(=O)c1c([S+]([O-])Cc2cc(C)on2)[nH]c2c(F)ccc(F)c2c1=O (centres unmarked) [Compound 82, 3-acetyl-5,8-difluoro-2-(((5-methylisoxazol-3-yl)methyl)sulfinyl)quinolin-4(1H)-one]",IC50,< 1000 nM
"CC(=O)c1c(SCc2cccc(I)c2)[nH]c2c(Br)ccc(Cl)c2c1=O [Compound 47, 3-acetyl-8-bromo-5-chloro-2-((3-iodobenzyl)thio)quinolin-4(1H)-one]",IC50,< 1000 nM
"CC(=O)c1c(SCc2ccccc2)n(C(=O)c2ccc(Br)cc2)c2c(Br)ccc(Cl)c2c1=O [Compound 23, 3-acetyl-2-(benzylthio)-8-bromo-1-(4-bromobenzoyl)-5-chloroquinolin-4(1H)-one]",IC50,< 1000 nM
"CSc1c(C(C)=O)c(=O)c2c(Cl)ccc(Br)c2n1C [Compound 5, 3-acetyl-8-bromo-5-chloro-1-methyl-2-(methylthio)quinolin-4(1H)-one]",IC50,< 1000 nM
"CC(=O)c1c([S+]([O-])Cc2ccc(S(F)(F)(F)(F)F)cc2)[nH]c2c(Br)ccc(Cl)c2c1=O (centres unmarked) [Compound 68, 3-acetyl-8-bromo-5-chloro-2-((4-(pentafluoro-16-sulfanyl)benzyl)sulfinyl)quinolin-4(1H)-one]",IC50,< 1000 nM
"CC(=O)c1c([S+]([O-])Cc2cc(F)cc(F)c2)[nH]c2c(Br)ccc(Cl)c2c1=O (centres unmarked) [Compound 46, 3-acetyl-8-bromo-5-chloro-2-((3,5-difluorobenzyl)sulfinyl)quinolin-4(1H)-one]",IC50,< 1000 nM
"Cc1cc(C[S+]([O-])c2[nH]c3c(Br)ccc(Cl)c3c(=O)c2C(=O)C(C)C)no1 (centres unmarked) [Compound 95, 8-bromo-5-chloro-3-isobutyryl-2-(((5-methylisoxazol-3-yl)methyl)sulfinyl)quinolin-4(1H)-one]",IC50,< 1000 nM
"CC(=O)c1c([S+]([O-])Cc2ccc(C(F)(F)F)cc2)[nH]c2c(Br)ccc(Cl)c2c1=O (centres unmarked) [Compound 70, 3-acetyl-8-bromo-5-chloro-2-((4-(trifluoromethyl)benzyl)sulfinyl)quinolin-4(1H)-one]",IC50,< 1000 nM
"CC(=O)c1c([S+]([O-])Cc2cc(F)cc(S(F)(F)(F)(F)F)c2)[nH]c2c(Br)ccc(Cl)c2c1=O (centres unmarked) [Compound 76, 3-acetyl-8-bromo-5-chloro-2-((3-fluoro-5-(pentafluoro-λ6-sulfanyl)benzyl)sulfinyl)quinolin-4(1H)-one]",IC50,< 1000 nM
"COc1cc(C[S+]([O-])c2[nH]c3c(Br)ccc(Cl)c3c(=O)c2C(C)=O)cc(OC)c1 (centres unmarked) [Compound 59, 3-acetyl-8-bromo-5-chloro-2-((3,5-dimethoxybenzyl)sulfinyl)quinolin-4(1H)-one]",IC50,< 1000 nM
"CC(=O)c1c([S+]([O-])C(C)C)[nH]c2c(Br)ccc(Cl)c2c1=O (centres unmarked) [Compound 25, 3-acetyl-8-bromo-5-chloro-2-(isopropylsulfinyl)quinolin-4(1H)-one]",IC50,< 1000 nM
"CSc1[nH]c2c(Br)ccc(Cl)c2c(=O)c1C(C)=O [Compound 2, 3-acetyl-8-bromo-5-chloro-2-(methylthio)quinolin-4(1H)-one]",IC50,< 1000 nM
"CC(=O)c1c([S+](C)[O-])[nH]c2c(Br)ccc(Cl)c2c1=O (centres unmarked) [Compound 1, 3-acetyl-8-bromo-5-chloro-2-(methylsulfinyl)quinolin-4(1H)-one]",IC50,< 1000 nM
"COc1cccc2[nH]c([S+]([O-])Cc3cc(C)on3)c(C(C)=O)c(=O)c12 (centres unmarked) [Compound 94, 3-acetyl-5-methoxy-2-(((5-methylisoxazol-3-yl)methyl)sulfinyl)quinolin-4(1H)-one]",IC50,< 1000 nM
"CCS(=O)(=O)n1c([S+](C)[O-])c(C(C)=O)c(=O)c2c(Cl)ccc(Br)c21 (centres unmarked) [Compound 39, 3-acetyl-8-bromo-5-chloro-1-(ethylsulfonyl)-2-(methylsulfinyl)quinolin-4(1H)-one]",IC50,< 1000 nM
